This is an account of results in PubChem BioAssay (NCI).

Molecules are shown by their SMILES.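 Interpolation was linear, between the two tested concentrations surrounding the appropriate level; five concentrations were tested over 48 hours in 96-well plates. TGI marks complete inhibition of growth.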

Test systems include TK-10 renal; A549 NSCLC; SK-MEL-5 melanoma; COLO 205 colon; EKVX NSCLC; OVCAR-4 ovarian; NCI-H460 lung; ACHN renal; IGROV1 ovarian; SN12C renal.
Common to all, as to test: NCI anticancer screen, dose series, 48 h

In the case of `O=C(O)[C@H]1NC[C@H]2C(Br)=NO[C@@H]12`, the TGI in the experiment on TK-10 renal, with A549 NSCLC, in the experiment with SK-MEL-5 melanoma, in the experiment with COLO 205 colon, with EKVX NSCLC and in the experiment with OVCAR-4 ovarian was above 100 µM throughout. Further, the TGI with NCI-H460 lung, in the experiment with ACHN renal, in the experiment on IGROV1 ovarian and in the experiment on SN12C renal was above 100 µM throughout.

On to `CC(=O)CCC1(C(=O)OCC(C)C)CCCC1=O` (stereo not given), for which the TGI in the experiment on TK-10 renal, with A549 NSCLC, in the experiment with SK-MEL-5 melanoma, with COLO 205 colon, with EKVX NSCLC and in the experiment with OVCAR-4 ovarian was above 100 µM throughout. Moreover, the TGI in the experiment on NCI-H460 lung, with ACHN renal, in the experiment on IGROV1 ovarian and in the experiment on SN12C renal was above 100 µM each time.

As to `C[C@H]1CCC/C=C/[C@@H]2C[C@H](OC3OC(CO)C(O)C(O)C3O)C[C@H]2[C@H](O)/C=C/C(=O)O1` (stereo not given in full), the TGI was above 100 µM in the experiment with TK-10 renal; above 100 µM in the experiment with A549 NSCLC; 31.6 µM in the experiment with SK-MEL-5 melanoma; 31.9 µM in the experiment on COLO 205 colon; above 100 µM with EKVX NSCLC; above 100 µM in the experiment with OVCAR-4 ovarian. The TGI in the experiment with NCI-H460 lung, in the experiment on ACHN renal, with IGROV1 ovarian and in the experiment on SN12C renal was above 100 µM each time.

In the case of `CCOC(=O)CNC(=O)c1[nH]cnc1/N=N/N(C)C`, the TGI in the experiment with TK-10 renal, in the experiment on A549 NSCLC, with SK-MEL-5 melanoma, in the experiment with COLO 205 colon, in the experiment with EKVX NSCLC and in the experiment on OVCAR-4 ovarian was above 100 µM each time. In addition, the TGI with NCI-H460 lung, with ACHN renal, with IGROV1 ovarian and with SN12C renal was above 100 µM throughout.

For `O=C1/C(=C\c2cccc(Oc3ccccc3)c2)SC(c2ccccc2)N1c1cc(Cl)ccc1Cl` (stereo not given), the TGI with TK-10 renal, in the experiment on A549 NSCLC, in the experiment with SK-MEL-5 melanoma, in the experiment on COLO 205 colon, in the experiment on EKVX NSCLC and in the experiment with OVCAR-4 ovarian was above 100 µM each time. Also, the TGI was above 100 µM with NCI-H460 lung, above 100 µM in the experiment with ACHN renal, above 100 µM in the experiment on IGROV1 ovarian and 48.9 µM with SN12C renal.

`COc1c(OC2OC(CO)C(O)C(O)C2O)cc2c(c1OC)-c1ccc(OC)c(=O)cc1C(NC(C)=O)CC2` (stereo not given): the TGI in the experiment with TK-10 renal, in the experiment on A549 NSCLC, with SK-MEL-5 melanoma, in the experiment on COLO 205 colon, with EKVX NSCLC and in the experiment with OVCAR-4 ovarian was above 100 µM each time. For the same molecule, the TGI in the experiment on NCI-H460 lung, in the experiment on ACHN renal, with IGROV1 ovarian and in the experiment with SN12C renal was above 100 µM each time.

As for `O=c1[nH]c2c(Nc3c4ccccc4nc4ccccc34)c([N+](=O)[O-])c(Nc3c4ccccc4nc4ccccc34)c([N+](=O)[O-])c2[nH]1`, the TGI in the experiment on TK-10 renal is above 22.5 µM; with A549 NSCLC, 3.56 µM; in the experiment on SK-MEL-5 melanoma it was 4 µM; in the experiment with COLO 205 colon it was 5.02 µM; with EKVX NSCLC, 5.2 µM; in the experiment on OVCAR-4 ovarian it was 10.1 µM. Besides, the TGI was above 22.5 µM with NCI-H460 lung, 4.78 µM with ACHN renal, 5.18 µM with IGROV1 ovarian and 8.8 µM in the experiment with SN12C renal.

Take `CC1(C)C(=O)/C(=C/c2ccccc2)C(C)(C)C1(C)C`: the TGI in the experiment on TK-10 renal, in the experiment on A549 NSCLC, in the experiment with SK-MEL-5 melanoma, with COLO 205 colon, in the experiment on EKVX NSCLC and with OVCAR-4 ovarian was above 100 µM in each case. Also, the TGI in the experiment with NCI-H460 lung, with ACHN renal, in the experiment on IGROV1 ovarian and in the experiment with SN12C renal was above 100 µM each time.

Consider `O=C(O)CCCc1ccc2c(c1)C(C(=O)O)CC2` (stereo not given), for which the TGI with TK-10 renal, in the experiment on A549 NSCLC, in the experiment on SK-MEL-5 melanoma, in the experiment on COLO 205 colon, with EKVX NSCLC and with OVCAR-4 ovarian was above 100 µM throughout. Moreover, the TGI in the experiment on NCI-H460 lung, in the experiment on ACHN renal, with IGROV1 ovarian and in the experiment on SN12C renal was above 100 µM throughout.

As to `O=S(Nc1ccccc1)c1ccc(Cl)cc1` (stereo not given), the TGI in the experiment with TK-10 renal, in the experiment with A549 NSCLC, in the experiment on SK-MEL-5 melanoma, with COLO 205 colon, in the experiment on EKVX NSCLC and in the experiment with OVCAR-4 ovarian was above 100 µM in each case. For the same molecule, the TGI with NCI-H460 lung, in the experiment with ACHN renal, in the experiment with IGROV1 ovarian and in the experiment on SN12C renal was above 100 µM throughout.

As for `Cn1c(CO)ccc1-c1ccc(-c2ccc(CO)[se]2)[se]1`, the TGI was above 78.1 µM in the experiment on TK-10 renal; above 100 µM with A549 NSCLC; 6.74 µM with SK-MEL-5 melanoma; 9.23 µM with COLO 205 colon; above 100 µM with EKVX NSCLC; 3.67 µM in the experiment on OVCAR-4 ovarian. In addition, the TGI was above 100 µM in the experiment on NCI-H460 lung, above 75.3 µM with ACHN renal, 12.4 µM in the experiment with IGROV1 ovarian and above 100 µM with SN12C renal.

Take `O=c1c2ccc(Cl)cc2oc2c(CSc3ccccc3)cccc12`: the TGI in the experiment on TK-10 renal is above 100 µM; in the experiment with A549 NSCLC, above 100 µM; in the experiment with SK-MEL-5 melanoma it was above 92.1 µM; in the experiment with COLO 205 colon it was above 100 µM; in the experiment on EKVX NSCLC, above 100 µM; with OVCAR-4 ovarian, above 100 µM. Also, the TGI in the experiment with NCI-H460 lung is 90.4 µM; in the experiment on ACHN renal it was above 65.1 µM; in the experiment on IGROV1 ovarian, above 52 µM; in the experiment on SN12C renal it was above 100 µM.

For `O=C(OCCN=c1c2ccccc2ccc2ccccc12)c1cc([N+](=O)[O-])cc([N+](=O)[O-])c1`, the TGI in the experiment on TK-10 renal, with A549 NSCLC, in the experiment with SK-MEL-5 melanoma, in the experiment on COLO 205 colon, in the experiment with EKVX NSCLC and in the experiment with OVCAR-4 ovarian was above 100 µM in each case. Besides, the TGI in the experiment on NCI-H460 lung, in the experiment on ACHN renal, in the experiment with IGROV1 ovarian and in the experiment on SN12C renal was above 100 µM in each case.
